Like-named read-outs stand apart in the source and are kept apart here. Where a SMILES comes first, the peptide text is derived from it. The star is where a group is joined. Hydrocinnamoyl = O=C(CCc1ccccc1)*; Cbz = O=C(OCc1ccccc1)*; CH2F = FC*
Legend:
Format in all cases: biochemical
MCH-5 [1] = target: T1, MCH-5 (Homo sapiens, UniProt Q14790); experiment: Fluorescence enzyme assay, IC50 determination, Mch5
Method: (§1) Fluorescence enzyme assays detecting the activity of the compounds of Formula 1 utilizing the recombinant ICE and CPP32 enzymes are performed essentially according to Thornberry et al. (Nature, 356:768:774 (1992)) and Nicholson et al. (Nature, 376:37–43 (1995)) respectively, (herein incorporated by reference) in 96 well microtiter plates. The substrate is Acetyl-Tyr-Val-Ala-Asp-amino-4-methylcoumarin (AMC) for the ICE assay and Acetyl-Asp-Glu-Val-Asp-amino-4-methylcoumarin for the CPP32, Mch2, Mch3 and Mch5 assays. Enzyme reactions are run in ICE buffer (25 mM HEPES, 1 mM EDTA, 0.1% CHAPS, 10% sucrose, pH 7.5) containing 2 mM DTT at room temperature in duplicate.
(§2) The enzyme and the compound of Formula I to be assayed are allowed to preincubate in the microtitre plate wells for 30 minutes at room temperature prior to the addition of substrate to initiate the reaction. Fluorescent AMC product formation is monitored for one hour at room temperature by measuring the fluorescence emission at 460 nm using an excitation wavelength of 360 nm. The fluorescence change in duplicate (control) wells are averaged and the mean values are plotted as a function of inhibitor concentration to determine the inhibitor concentration producing 50% inhibition (IC50). The results of this assay are set forth below in Table 1 and in Table 3 (for Table 3, see Examples 11 through 52).
(§3) The reference compound for this assay was Cbz-ValAlaAsp-H and the values are denoted in Table 1 as “Reference”.

MCH-3 = target: T2, MCH-3 (Homo sapiens, UniProt P55210); experiment: Fluorescence enzyme assay, IC50 determination, Mch3
T2 sequence (P55210 24-198 limits assumed): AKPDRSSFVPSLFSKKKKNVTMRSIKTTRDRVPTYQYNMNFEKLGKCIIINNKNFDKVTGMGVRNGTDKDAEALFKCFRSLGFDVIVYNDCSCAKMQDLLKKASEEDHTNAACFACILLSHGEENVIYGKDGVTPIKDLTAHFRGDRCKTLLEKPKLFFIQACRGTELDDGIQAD
T2 sequence (P55210 207-303 limits assumed): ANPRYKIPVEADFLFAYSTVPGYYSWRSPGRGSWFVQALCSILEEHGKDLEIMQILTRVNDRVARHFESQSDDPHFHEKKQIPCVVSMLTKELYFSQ
Method: as §1, §2, §3

MCH-2 [2] = target: T3, MCH-2 (Homo sapiens, UniProt P55212); experiment: Fluorescence enzyme assay, IC50 determination, Mch2
T3 sequence (P55212 24-179 limits assumed): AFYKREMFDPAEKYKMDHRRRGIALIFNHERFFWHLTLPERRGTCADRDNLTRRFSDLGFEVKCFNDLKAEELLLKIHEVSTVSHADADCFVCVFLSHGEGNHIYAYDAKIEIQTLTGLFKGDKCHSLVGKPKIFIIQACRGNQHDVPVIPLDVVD
T3 sequence (P55212 194-293 limits assumed): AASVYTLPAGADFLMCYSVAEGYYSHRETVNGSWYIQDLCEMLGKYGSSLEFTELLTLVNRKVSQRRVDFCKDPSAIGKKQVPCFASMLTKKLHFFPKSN
Method: as §1, §2, §3

CPP32 [3] = target: T4, CPP32 (Homo sapiens, UniProt P42574); experiment: Fluorescence enzyme assay, IC50 determination, CPP32
T4 sequence (P42574 29-175 limits assumed): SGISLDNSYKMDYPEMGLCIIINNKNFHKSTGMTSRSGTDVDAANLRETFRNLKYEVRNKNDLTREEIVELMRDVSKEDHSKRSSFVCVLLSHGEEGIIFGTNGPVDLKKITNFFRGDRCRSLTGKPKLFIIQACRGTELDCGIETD
T4 sequence (P42574 176-277 limits assumed): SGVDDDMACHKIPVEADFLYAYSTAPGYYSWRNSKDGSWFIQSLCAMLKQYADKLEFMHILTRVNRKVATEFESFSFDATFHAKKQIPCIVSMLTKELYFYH
Method: as §1, §2, §3

mICE [4] = target: T5, mICE (Mus musculus, UniProt P29452); experiment: Fluorescence enzyme assay, IC50 determination, ICE
T5 sequence (P29452 123-296 limits assumed): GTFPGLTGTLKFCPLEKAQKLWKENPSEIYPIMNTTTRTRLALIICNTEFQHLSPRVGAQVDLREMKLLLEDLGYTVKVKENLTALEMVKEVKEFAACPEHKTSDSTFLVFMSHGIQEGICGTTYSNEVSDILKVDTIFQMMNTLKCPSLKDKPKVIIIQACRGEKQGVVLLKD
T5 sequence (P29452 315-402 limits assumed): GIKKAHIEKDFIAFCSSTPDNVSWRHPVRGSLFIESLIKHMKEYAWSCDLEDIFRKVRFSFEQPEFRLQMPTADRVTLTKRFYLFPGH
Method: as §1, §2, §3

MCH-2 [5] = target: T3, MCH-2; experiment: Dissociation constant Ki and irreversible rate constant k3 for irreversible inhibitors, Mch2; conditions: continuous assay 60 min, reaction initiated by adding enzyme
MCH-5 [6] = target: T1, MCH-5; experiment: Dissociation constant Ki and irreversible rate constant k3 for irreversible inhibitors, Mch5; conditions: continuous assay 60 min, reaction initiated by adding enzyme
CPP32 [7] = target: T4, CPP32; experiment: Dissociation constant Ki and irreversible rate constant k3 for irreversible inhibitors, CPP32; conditions: continuous assay 60 min, reaction initiated by adding enzyme
mICE [8] = target: T5, mICE; experiment: Dissociation constant Ki and irreversible rate constant k3 for irreversible inhibitors, ICE; conditions: continuous assay 60 min, reaction initiated by adding enzyme
[9] = Ac-DEVD-AMC substrate, 30 min preincubation, room temperature, read-out: MCH-5 IC50
[10] = Ac-DEVD-AMC substrate, 30 min preincubation, room temperature, read-out: MCH-3 IC50
[11] = Ac-DEVD-AMC substrate, 30 min preincubation, room temperature, read-out: MCH-2 IC50
[12] = recombinant enzyme, Ac-DEVD-AMC substrate, 30 min preincubation, room temperature, read-out: CPP32 IC50
[13] = Table 3, method of Preparation 3A, read-out: MCH5 I50
[14] = Table 3, method of Preparation 3A, read-out: MCH3 I50
[15] = Table 3, method of Preparation 3A, read-out: MCH2 I50
[16] = Table 3, method of Preparation 3A, read-out: CPP32 I50

T1 sequence (Q14790 217-374 limits assumed, species assumed): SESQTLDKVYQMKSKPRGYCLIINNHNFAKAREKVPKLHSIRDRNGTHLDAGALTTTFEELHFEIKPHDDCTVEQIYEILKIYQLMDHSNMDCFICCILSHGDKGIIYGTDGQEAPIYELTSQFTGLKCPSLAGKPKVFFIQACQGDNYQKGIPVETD
T1 sequence (Q14790 385-479 limits assumed, species assumed): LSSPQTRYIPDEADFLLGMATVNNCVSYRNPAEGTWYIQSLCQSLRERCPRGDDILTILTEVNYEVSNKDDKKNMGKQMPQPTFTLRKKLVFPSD

| Compound | Ki (MCH-2 [5]) [nM] | MCH-2 k3/Ki (MCH-2 [5]) | Ki (MCH-5 [6]) [nM] | MCH-5 k3/Ki (MCH-5 [6]) | CPP32 k3/Ki (CPP32 [7]) | Ki (CPP32 [7]) [nM] | Ki (mICE [8]) [nM] | mICE k3/Ki (mICE [8]) | also measured |
| --- | --- | --- | --- | --- | --- | --- | --- | --- | --- |
| CC(C)C[C@H](NC(=O)C(C)Nc1cccc2ccccc12)C(=O)N[C@H](C=O)CC(=O)O (mixture of isomers) [Example 9, (3S,2′RS)-3-[N-(2′-(1-Naphthylamino)Propionyl)Leucinyl]Amino-4-Oxobutanoic Acid] | – | – | – | – | – | – | – | – | IC50 (MCH-5 [1]; [9]): 17 nM; IC50 (MCH-3; [10]): 7240 nM; IC50 (MCH-2 [2]; [11]): 310 nM; IC50 (CPP32 [3]; [12]): 512 nM |
| CC(C)C[C@H](NC(=O)COc1cccc2ccccc12)C(=O)N[C@H](C=O)CC(=O)O [Example 1, (3S)-3-[N-((1-Naphthyloxy)Acetyl)Leucinyl]Amino-4-Oxobutanoic Acid] | – | – | – | – | – | – | – | – | IC50 (MCH-5 [1]; [9]): 680 nM; IC50 (MCH-3; [10]): 1560 nM; IC50 (MCH-2 [2]; [11]): 995 nM; IC50 (mICE [4]; recombinant enzyme, Ac-YVAD-AMC substrate, 30 min preincubation, room temperature, read-out: mICE IC50): 535 nM; IC50 (CPP32 [3]; [12]): 141 nM |
| CC(C)C[C@H](NC(=O)[C@H](CCC(=O)O)Oc1cccc2ccccc12)C(=O)N[C@H](C=O)CC(=O)O [Example 3, (3S,2′S)-3-[N-((2′-(1-Naphthyloxy)-4′-Carboxy)Butyryl)Leucinyl]Amino-4-Oxobutanoic Acid] | – | – | – | – | – | – | – | – | IC50 (MCH-5 [1]; [9]): 12 nM; IC50 (MCH-3; [10]): 587 nM; IC50 (MCH-2 [2]; [11]): 15 nM; IC50 (CPP32 [3]; [12]): 21 nM |
| CC(C)C[C@H](NC(=O)[C@@H](CCC(=O)O)Oc1cccc2ccccc12)C(=O)N[C@H](C=O)CC(=O)O [Example 4, (3S,2′R)-3-[N-((2′-(1-Naphthyloxy)-4′-Carboxy)Butyryl)Leucinyl]Amino-4-Oxobutanoic Acid] | – | – | – | – | – | – | – | – | IC50 (MCH-5 [1]; [9]): 31 nM; IC50 (MCH-3; [10]): 130 nM; IC50 (MCH-2 [2]; [11]): 3.5 nM; IC50 (CPP32 [3]; [12]): 3.8 nM |
| CC(C)C[C@H](NC(=O)C(C)Oc1cccc2ccccc12)C(=O)N[C@H](C=O)CC(=O)O (stereo partly drawn) [Example 14] | – | – | – | – | – | – | – | – | IC50 (MCH-5 [1]; [13]): 2430 nM; IC50 (MCH-3; [14]): 1320 nM; IC50 (MCH-2 [2]; [15]): 1280 nM; IC50 (CPP32 [3]; [16]): 376 nM |
| CC(C)C[C@H](NC(=O)C(C)Oc1cccc2cc(Br)ccc12)C(=O)N[C@H](C=O)CC(=O)O (stereo partly drawn) [Example 15] | – | – | – | – | – | – | – | – | IC50 (MCH-5 [1]; [13]): 29100 nM; IC50 (MCH-3; [14]): 32400 nM; IC50 (MCH-2 [2]; [15]): 13800 nM; IC50 (CPP32 [3]; [16]): 4810 nM |
| CC(C)C[C@H](NC(=O)CCOc1cccc2ccccc12)C(=O)N[C@H](C=O)CC(=O)O [Example 22] | – | – | – | – | – | – | – | – | IC50 (MCH-5 [1]; [13]): 9810 nM; IC50 (MCH-3; [14]): 1370 nM; IC50 (MCH-2 [2]; [15]): 305 nM; IC50 (CPP32 [3]; [16]): 59 nM |
| CC(C)C[C@H](NC(=O)CCc1ccccc1)C(=O)N[C@H](C=O)CC(=O)O [Example 35] (Hydrocinnamoyl-Leu-Asp-aldehyde) | – | – | – | – | – | – | – | – | IC50 (MCH-5 [1]; [13]): > 10000 nM; IC50 (MCH-3; [14]): > 10000 nM; IC50 (mICE [4]; Table 3, method of Preparation 3A, read-out: mICE I50): > 10000 nM; IC50 (CPP32 [3]; [16]): 9740 nM |
| CC(C)C[C@H](NC(=O)COc1c(C(=O)O)ccc2ccccc12)C(=O)N[C@@H](CC(=O)O)C(=O)COC(=O)c1c(Cl)cccc1Cl [Example 165, (3S)-3-[N-((2′-Carboxy-1′-Naphthyloxy)Acetyl)Leucinyl]-Amino-5-(2′,6′-Dichlorobenzoyloxy)-4-Oxopentanoic Acid] | 8 | 116,000 M^−1s^−1 | 89 | 13,100 M^−1s^−1 | 335,000 M^−1s^−1 | 20 | 396 | 25,500 M^−1s^−1 | – |
| CC(C)C[C@H](NC(=O)COc1c(C(=O)O)ccc2ccccc12)C(=O)N[C@@H](CC(=O)O)C(=O)COP(=O)(c1ccccc1)c1ccccc1 [Example 166] | 11 | 146,000 M^−1s^−1 | 28 | 80,000 M^−1s^−1 | 317,000 M^−1s^−1 | 28 | 42 | 149,000 M^−1s^−1 | – |
| CC(C)C[C@H](NC(=O)COc1c(C(=O)O)ccc2ccccc12)C(=O)N[C@@H](CC(=O)O)C(=O)COc1c(F)c(F)cc(F)c1F [Example 167] | 42 | 52,500 M^−1s^−1 | 126 | 13,600 M^−1s^−1 | 56,200 M^−1s^−1 | 89 | 501 | 21,300 M^−1s^−1 | – |
| C[C@H](NC(=O)COc1ccc2ccccc2c1)C(=O)NC(CC(=O)O)C(=O)COc1c(F)c(F)cc(F)c1F (stereo partly drawn) [Example 176] | 1260 | 1,330 M^−1s^−1 | 1160 | 684 M⁻¹ s⁻¹ | 4,330 M^−1s^−1 | 3080 | 480 | 11,100 M^−1s^−1 | – |
| C[C@H](NC(=O)COc1ccccc1-c1ccccc1)C(=O)NC(CC(=O)O)C(=O)COc1c(F)c(F)cc(F)c1F (stereo partly drawn) [Example 177] | 47 | 21,100 M^−1s^−1 | 439 | 4,370 M^−1s^−1 | 89,700 M^−1s^−1 | 86 | 225 | 45,600 M^−1s^−1 | – |
| CC(NC(=O)C(NC(=O)OCc1ccccc1)C(C)C)C(=O)NC(CC(=O)O)C(=O)CF (stereo not drawn) [refer., Cbz-ValAlaAsp-CH2F, reference compound] (Cbz-Val-Ala-Asp-CH2F; configuration not given here) | 594 | 2,950 M^−1s^−1 | 18 | 83,300 M^−1s^−1 | 12,200 M^−1s^−1 | 820 | 15 | 214,000 M^−1s^−1 | – |

From patent US7157430B2, “(Substituted)acyl dipeptidyl inhibitors of the ICE/CED-3 family of cysteine proteases” (Idun Pharmaceuticals, Inc., priority 1998, dated 2007)
